Measurements as given in paper PMC3577830, “Crystal Structure of Silkworm Bombyx mori JHBP in Complex With 2-Methyl-2,4-Pentanediol: Plasticity of JH-Binding Pocket and Ligand-Induced Conformational Change of the Second Cavity in JHBP” (PLoS ONE, 2013).

How the values were obtained:
[1] = target: T1, juvenile hormone-binding protein (JHBP) (Bombyx mori, UniProt Q9U556); test: radioligand competition with 3H-JH III (dextran-coated charcoal)
T1 construct: gene hJHBP; recombinant mature JHBP

[2] = target: T1, juvenile hormone-binding protein (JHBP); test: crystal structure ([…] Å); competition with 3H-JH III (charcoal assay)

| Compound | IC50 [1] [µM] | IC50 [2] [µM] |
| --- | --- | --- |
| COC(C)(C)CCC[C@H](C)C/C=C/C(C)=C/C(=O)OC(C)C (racemic) [methoprene] | 35 | – |
| CC(O)CC(C)(C)O (racemic) [MPD, 2-methyl-2,4-pentanediol] | – | 160 |
